Source: patent US12543736B2, “Herbicidal compositions comprising mesotrione” (BASF SE, priority 2024, dated 2026)

What was measured:
Format in all cases: in vivo
[1] = system: Digitaria sanguinalis; experiment: Example 2 post-emergence greenhouse trial, DIGSA; settings: growth stage 12, 7 DAT
Protocol: (§1) In the examples below, using the method of S. R. Colby (1967) “Calculating synergistic and antagonistic responses of herbicide combinations”, Weeds 15, p. 22ff., the value E, which is expected if the activity of the individual active compounds is only additive, was calculated: [formula] • where • X=percent activity using active herbicide A at an application rate a; • Y=percent activity using active herbicide B (e.g. mesotrione) at an application rate b; • E=expected activity (in %) by A+B at application rates a+b. If the value found experimentally is higher than the value E calculated according to Colby, a synergistic effect is present. The culture containers used were plastic pots containing loamy sand with approximately 3.0% of humus as substrate. The seeds of the test plants were sown separately for each species. For the post-emergence treatment, the test plants were grown to a plant height of from 3 to 15 cm, depending on the plant habit, and only then treated with the active compounds which had been suspended or emulsified in water. To this end, the test plants were either sown directly, and grown in the same containers, or they were first grown separately as seedlings and transplanted into the test containers a few days prior to treatment. Depending on the species, the plants were kept at 10-25° C. and 20-35° C., respectively. The test period extended over 2 to 4 weeks. During this time, the plants were tended and their response to the individual treatments was evaluated. Evaluation was carried out using a scale from 0 to 100. 100 means no emergence of the plants, or complete destruction of at least the above-ground parts, and 0 means no damage or normal course of growth. A good herbicidal activity is given at values of at least 70, and very good herbicidal activity is given at values of at least 85. Post-Emergence Application of Herbicide A-1 (A-1) and Mesotrione (B) in Greenhouse Trials Herbicide A-1 (342 g/l) and mesotrione (480 g/l) were, together with addition of 0.5 v/v % MSO (methylated sed oil) as adjuvant, formulated in water as distribution medium (water volume 200 l/ha) and sprayed with commercial flat fan nozzles.

[2] = system: Zea mays; experiment: Example 3 post-emergence field trial, ZEAMX
Protocol: (§2) In the examples below, using the method of S. R. Colby (1967) “Calculating synergistic and antagonistic responses of herbicide combinations”, Weeds 15, p. 22ff., the value E, which is expected if the activity of the individual active compounds is only additive, was calculated: [formula] • where • X=percent activity using active herbicide A at an application rate a; • Y=percent activity using active herbicide B (e.g. mesotrione) at an application rate b; • E=expected activity (in %) by A+B at application rates a+b. If the value found experimentally is higher than the value E calculated according to Colby, a synergistic effect is present. Evaluation was carried out using a scale from 0 to 100. 100 means no emergence of the plants, or complete destruction of at least the above-ground parts, and 0 means no damage or normal course of growth. A good herbicidal activity is given at values of at least 70, and very good herbicidal activity is given at values of at least 85. Post-Emergence Application of Herbicide A-1 (A-1) and Mesotrione (B) in Field Trials Herbicide A-1 (342 g/l) and mesotrione (100 g/l) were, together with addition of 0.5 v/v % MSO (methylated sed oil) as adjuvant, formulated in water as distribution medium (water volume 200 l/ha) and sprayed with commercial flat fan nozzles.

[3] = system: Avena fatua; experiment: Example 2 post-emergence greenhouse trial, AVEFA
Protocol: as §1

[4] = system: Lolium multiflorum; experiment: Example 3 post-emergence field trial, LOLMU; settings: height 20-25 cm
Protocol: as §2

[5] = system: Echinochloa crus-galli; experiment: Example 3 post-emergence field trial, ECHCG; settings: height 15-20 cm
Protocol: as §2

[6] = system: Glycine max; experiment: Example 3 post-emergence field trial, GLXMA; settings: height 7-11 cm
Protocol: as §2

[7] = height 27-33 cm, 7 DAT, g ai/ha: A-1 12.5, B 105
[8] = height 27-33 cm, 7 DAT, g ai/ha: A-1 12.5, B 210
[9] = height 27-33 cm, 7 DAT, g ai/ha: A-1 18, B 105
[10] = height 27-33 cm, 7 DAT, g ai/ha: A-1 18, B 210
[11] = height 27-33 cm, 21 DAT, g ai/ha: A-1 12.5, B 105
[12] = height 27-33 cm, 21 DAT, g ai/ha: A-1 12.5, B 210
[13] = height 27-33 cm, 21 DAT, g ai/ha: A-1 18, B 105
[14] = height 27-33 cm, 21 DAT, g ai/ha: A-1 18, B 210
[15] = height 27-33 cm, 28 DAT, g ai/ha: A-1 12.5, B 105
[16] = height 27-33 cm, 28 DAT, g ai/ha: A-1 12.5, B 210
[17] = height 27-33 cm, 28 DAT, g ai/ha: A-1 18, B 105
[18] = height 27-33 cm, 28 DAT, g ai/ha: A-1 18, B 210
[19] = height 40-60 cm, 7 DAT, g ai/ha: A-1 12.5, B 105
[20] = height 40-60 cm, 7 DAT, g ai/ha: A-1 12.5, B 210
[21] = height 40-60 cm, 7 DAT, g ai/ha: A-1 18, B 105
[22] = height 40-60 cm, 7 DAT, g ai/ha: A-1 18, B 210
[23] = growth stage 11, 7 DAT, g ai/ha: A-1 1, B 50
[24] = growth stage 11, 20 DAT, g ai/ha: A-1 1, B 50
[25] = growth stage 11, 20 DAT, g ai/ha: A-1 1, B 100
[26] = 7 DAT, g ai/ha: A-1 12.5, B 105
[27] = 7 DAT, g ai/ha: A-1 12.5, B 210
[28] = 21 DAT, g ai/ha: A-1 12.5, B 105
[29] = 28 DAT, g ai/ha: A-1 12.5, B 105

SMILES	% herbicidal activity ([1]; g ai/ha: A-1 0.25, B 50)	% herbicidal activity ([1]; g ai/ha: A-1 0.25, B 100)	% herbicidal activity ([1]; g ai/ha: A-1 0.5, B 50)	% herbicidal activity [2, 7]	% herbicidal activity [2, 8]	% herbicidal activity [2, 9]	% herbicidal activity [2, 10]	% herbicidal activity [2, 11]	% herbicidal activity [2, 12]	% herbicidal activity [2, 13]	% herbicidal activity [2, 14]	% herbicidal activity [2, 15]	% herbicidal activity [2, 16]	% herbicidal activity [2, 17]	% herbicidal activity [2, 18]	% herbicidal activity [2, 19]	% herbicidal activity [2, 20]	% herbicidal activity [2, 21]	% herbicidal activity [2, 22]	% herbicidal activity [3, 23]	also measured
CCOC(=O)COc1ccccc1Oc1nc(-n2c(=O)cc(C(F)(F)F)n(C)c2=O)c(F)cc1Cl [A-1, ethyl 2-[2-[[3-chloro-5-fluoro-6-[3-methyl-2,6-dioxo-4-(trifluoromethyl)pyrimidin-1-yl]-2-pyridyl]oxy]phenoxy]acetate]	30%	30%	80%	30%	45%	40%	55%	80%	85%	90%	80%	80%	80%	88%	85%	85%	85%	85%	85%	70%	% herbicidal activity [3, 24]: 35%; % herbicidal activity [3, 25]: 35%; % herbicidal activity [4, 26]: 60%; % herbicidal activity [4, 27]: 60%; % herbicidal activity ([4]; 7 DAT, g ai/ha: A-1 18, B 105): 65%; % herbicidal activity ([4]; 7 DAT, g ai/ha: A-1 18, B 210): 70%; % herbicidal activity ([4]; 21 DAT, g ai/ha: A-1 18, B 210): 40%; % herbicidal activity ([4]; 28 DAT, g ai/ha: A-1 18, B 210): 40%; % herbicidal activity [5, 26]: 30%; % herbicidal activity [5, 27]: 20%; % herbicidal activity ([5]; 7 DAT, g ai/ha: A-1 18, B 105): 30%; % herbicidal activity ([5]; 7 DAT, g ai/ha: A-1 18, B 210): 30%; % herbicidal activity [5, 28]: 30%; % herbicidal activity ([5]; 21 DAT, g ai/ha: A-1 18, B 105): 30%; % herbicidal activity [5, 29]: 20%; % herbicidal activity ([5]; 28 DAT, g ai/ha: A-1 18, B 105): 30%; % herbicidal activity [6, 26]: 90%; % herbicidal activity ([6]; 7 DAT, g ai/ha: A-1 18, B 105): 90%; % herbicidal activity [6, 28]: 92%
CS(=O)(=O)c1ccc(C(=O)C2C(=O)CCCC2=O)c([N+](=O)[O-])c1 [B, mesotrione]	70%	80%	70%	0%	0%	0%	0%	0%	0%	0%	0%	0%	0%	0%	0%	5%	5%	5%	5%	15%	% herbicidal activity [3, 24]: 15%; % herbicidal activity [3, 25]: 15%; % herbicidal activity [4, 26]: 30%; % herbicidal activity [4, 27]: 30%; % herbicidal activity ([4]; 7 DAT, g ai/ha: A-1 18, B 105): 30%; % herbicidal activity ([4]; 7 DAT, g ai/ha: A-1 18, B 210): 30%; % herbicidal activity ([4]; 21 DAT, g ai/ha: A-1 18, B 210): 30%; % herbicidal activity ([4]; 28 DAT, g ai/ha: A-1 18, B 210): 30%; % herbicidal activity [5, 26]: 50%; % herbicidal activity [5, 27]: 50%; % herbicidal activity ([5]; 7 DAT, g ai/ha: A-1 18, B 105): 50%; % herbicidal activity ([5]; 7 DAT, g ai/ha: A-1 18, B 210): 50%; % herbicidal activity [5, 28]: 60%; % herbicidal activity ([5]; 21 DAT, g ai/ha: A-1 18, B 105): 60%; % herbicidal activity [5, 29]: 50%; % herbicidal activity ([5]; 28 DAT, g ai/ha: A-1 18, B 105): 50%; % herbicidal activity [6, 26]: 55%; % herbicidal activity ([6]; 7 DAT, g ai/ha: A-1 18, B 105): 55%; % herbicidal activity [6, 28]: 45%
